Columns and labels:
Experiment in all cases: radiometric filter-binding kinase assay, Kinase HotSpot
Details in all cases: compound 0.5 µM; ATP 10 µM
PRKCA (human) = PRKCA (human) (UniProt P17252)
MATK (human) = MATK (human) (UniProt P42679)
PRKG2 (human) = PRKG2 (human) (UniProt Q13237)
ULK2 (human) = ULK2 (human) (UniProt Q8IYT8)
CAMK2B (human) = CAMK2B (human) (UniProt Q13554)
ITK (human) = ITK (human) (UniProt Q08881)
STK3 (human) = STK3 (human) (UniProt Q13188)
RPS6KA1 KD1 KD2 (human) = RPS6KA1 KD1 KD2 (human) (UniProt Q15418)
PIM2 (human) = PIM2 (human) (UniProt Q9P1W9)
MAP4K5 (human) = MAP4K5 (human) (UniProt Q9Y4K4)
NEK1 (human) = NEK1 (human) (UniProt Q96PY6)
SGK3 (human) = SGK3 (human) (UniProt Q96BR1)
EGFR (human) = EGFR (human) (UniProt P00533)
GSK3A (human) = GSK3A (human) (UniProt P49840)
OXSR1 (human) = OXSR1 (human) (UniProt O95747)
EPHA5 (human) = EPHA5 (human) (UniProt P54756)
MAPK10 (human) = MAPK10 (human) (UniProt P53779)
TSSK1B (human) = TSSK1B (human) (UniProt Q9BXA7)
PASK (human) = PASK (human) (UniProt Q96RG2)
Chain of PASK (human) (Q96RG2 whole entry, looked up): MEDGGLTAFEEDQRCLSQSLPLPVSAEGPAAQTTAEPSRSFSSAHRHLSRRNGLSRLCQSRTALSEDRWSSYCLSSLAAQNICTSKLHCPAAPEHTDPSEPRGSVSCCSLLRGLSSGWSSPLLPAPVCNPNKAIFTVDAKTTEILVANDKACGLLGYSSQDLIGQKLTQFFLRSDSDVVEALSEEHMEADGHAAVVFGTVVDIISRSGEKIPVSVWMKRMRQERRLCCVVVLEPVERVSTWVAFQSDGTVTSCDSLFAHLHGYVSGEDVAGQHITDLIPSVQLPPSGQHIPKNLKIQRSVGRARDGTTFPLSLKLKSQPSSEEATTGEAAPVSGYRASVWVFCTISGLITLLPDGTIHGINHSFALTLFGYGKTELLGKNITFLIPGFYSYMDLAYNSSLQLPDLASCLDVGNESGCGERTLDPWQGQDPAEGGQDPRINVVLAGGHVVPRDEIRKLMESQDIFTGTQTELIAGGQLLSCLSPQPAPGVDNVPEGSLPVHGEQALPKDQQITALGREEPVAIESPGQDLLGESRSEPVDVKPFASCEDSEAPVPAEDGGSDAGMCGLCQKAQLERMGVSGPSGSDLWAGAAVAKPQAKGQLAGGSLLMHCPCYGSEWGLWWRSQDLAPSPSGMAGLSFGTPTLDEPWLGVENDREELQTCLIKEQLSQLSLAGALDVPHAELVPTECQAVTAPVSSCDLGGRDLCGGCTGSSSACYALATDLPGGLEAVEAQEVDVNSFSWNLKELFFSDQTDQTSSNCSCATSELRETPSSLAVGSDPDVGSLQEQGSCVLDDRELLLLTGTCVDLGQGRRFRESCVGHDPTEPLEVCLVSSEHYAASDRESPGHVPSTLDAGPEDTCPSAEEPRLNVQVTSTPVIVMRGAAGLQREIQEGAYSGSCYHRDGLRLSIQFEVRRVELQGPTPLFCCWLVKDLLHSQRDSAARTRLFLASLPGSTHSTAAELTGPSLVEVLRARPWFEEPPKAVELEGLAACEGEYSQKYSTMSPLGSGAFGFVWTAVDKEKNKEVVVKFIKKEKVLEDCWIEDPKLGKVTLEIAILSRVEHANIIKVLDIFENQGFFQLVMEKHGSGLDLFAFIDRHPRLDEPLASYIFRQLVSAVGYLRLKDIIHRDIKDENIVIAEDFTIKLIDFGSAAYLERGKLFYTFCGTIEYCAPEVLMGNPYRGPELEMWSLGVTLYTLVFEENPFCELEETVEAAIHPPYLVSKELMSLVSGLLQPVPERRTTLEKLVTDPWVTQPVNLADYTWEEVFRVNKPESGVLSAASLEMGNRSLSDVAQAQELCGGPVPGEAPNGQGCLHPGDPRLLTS

RET (human) = RET (human) (UniProt P07949)
FES (human) = FES (human) (UniProt P07332)
Chain of FES (human) (P07332 whole entry, looked up): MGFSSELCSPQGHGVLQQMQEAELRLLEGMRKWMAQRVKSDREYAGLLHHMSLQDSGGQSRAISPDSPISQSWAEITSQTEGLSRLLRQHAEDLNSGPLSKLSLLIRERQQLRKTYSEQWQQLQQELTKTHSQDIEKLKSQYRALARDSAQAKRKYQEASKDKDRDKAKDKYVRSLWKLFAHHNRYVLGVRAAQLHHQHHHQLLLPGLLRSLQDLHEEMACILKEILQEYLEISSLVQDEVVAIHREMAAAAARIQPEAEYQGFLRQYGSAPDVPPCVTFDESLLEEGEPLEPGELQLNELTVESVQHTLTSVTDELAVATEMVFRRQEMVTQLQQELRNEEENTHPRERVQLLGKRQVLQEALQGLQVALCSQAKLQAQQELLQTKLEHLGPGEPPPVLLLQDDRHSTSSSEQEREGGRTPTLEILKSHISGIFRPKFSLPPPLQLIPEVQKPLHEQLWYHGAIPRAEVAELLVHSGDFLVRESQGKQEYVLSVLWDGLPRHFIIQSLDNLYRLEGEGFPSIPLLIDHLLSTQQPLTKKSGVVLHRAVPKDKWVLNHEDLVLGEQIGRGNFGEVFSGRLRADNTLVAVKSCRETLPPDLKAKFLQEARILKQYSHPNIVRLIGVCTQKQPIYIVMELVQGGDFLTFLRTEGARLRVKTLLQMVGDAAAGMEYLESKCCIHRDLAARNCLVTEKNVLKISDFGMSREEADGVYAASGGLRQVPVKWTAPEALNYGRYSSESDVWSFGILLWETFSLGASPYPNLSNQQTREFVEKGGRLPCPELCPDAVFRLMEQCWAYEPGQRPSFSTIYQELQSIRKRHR

PRKCI (human) = PRKCI (human) (UniProt P41743)
TYRO3 (human) = TYRO3 (human) (UniProt Q06418)
MUSK (human) = MUSK (human) (UniProt O15146)
MAP3K10 (human) = MAP3K10 (human) (UniProt Q02779)
MINK1 (human) = MINK1 (human) (UniProt Q8N4C8)
[1] = target: JAK1 JH1 catalytic (human) (UniProt P23458)
Chain of JAK1 JH1 catalytic (human) (P23458 whole entry, looked up): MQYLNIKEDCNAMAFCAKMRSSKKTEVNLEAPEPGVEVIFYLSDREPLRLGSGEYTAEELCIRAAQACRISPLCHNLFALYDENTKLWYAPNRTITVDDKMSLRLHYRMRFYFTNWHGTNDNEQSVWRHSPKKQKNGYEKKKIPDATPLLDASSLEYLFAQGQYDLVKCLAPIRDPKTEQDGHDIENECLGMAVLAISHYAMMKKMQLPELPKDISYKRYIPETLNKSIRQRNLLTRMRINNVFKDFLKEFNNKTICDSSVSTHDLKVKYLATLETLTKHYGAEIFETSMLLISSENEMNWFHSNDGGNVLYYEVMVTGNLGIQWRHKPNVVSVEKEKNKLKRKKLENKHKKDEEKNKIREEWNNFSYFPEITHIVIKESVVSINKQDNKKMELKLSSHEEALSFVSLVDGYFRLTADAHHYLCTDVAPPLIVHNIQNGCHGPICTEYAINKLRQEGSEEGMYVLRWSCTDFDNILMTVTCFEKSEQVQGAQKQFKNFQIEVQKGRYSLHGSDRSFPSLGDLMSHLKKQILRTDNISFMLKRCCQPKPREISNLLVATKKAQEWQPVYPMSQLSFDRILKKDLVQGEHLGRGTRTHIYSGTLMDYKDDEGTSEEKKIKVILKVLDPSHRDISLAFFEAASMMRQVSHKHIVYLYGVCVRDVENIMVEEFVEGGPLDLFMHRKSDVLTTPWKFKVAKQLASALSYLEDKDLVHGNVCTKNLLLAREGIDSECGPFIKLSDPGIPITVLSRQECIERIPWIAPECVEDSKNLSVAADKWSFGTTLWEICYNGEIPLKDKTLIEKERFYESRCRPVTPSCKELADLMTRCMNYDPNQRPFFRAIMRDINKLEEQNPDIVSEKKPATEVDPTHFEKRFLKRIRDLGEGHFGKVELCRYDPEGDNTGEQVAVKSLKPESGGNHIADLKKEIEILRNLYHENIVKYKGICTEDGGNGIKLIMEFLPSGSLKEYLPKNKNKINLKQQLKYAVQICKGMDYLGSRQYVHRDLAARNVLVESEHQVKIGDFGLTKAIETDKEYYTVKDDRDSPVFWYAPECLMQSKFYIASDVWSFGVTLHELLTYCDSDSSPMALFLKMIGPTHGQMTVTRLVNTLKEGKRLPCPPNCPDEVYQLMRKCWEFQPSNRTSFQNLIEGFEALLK

CSF1R (human) = CSF1R (human) (UniProt P07333)
PIM3 (human) = PIM3 (human) (UniProt Q86V86)
SIK2 (human) = SIK2 (human) (UniProt Q9H0K1)
Chain of SIK2 (human) (Q9H0K1 whole entry, looked up): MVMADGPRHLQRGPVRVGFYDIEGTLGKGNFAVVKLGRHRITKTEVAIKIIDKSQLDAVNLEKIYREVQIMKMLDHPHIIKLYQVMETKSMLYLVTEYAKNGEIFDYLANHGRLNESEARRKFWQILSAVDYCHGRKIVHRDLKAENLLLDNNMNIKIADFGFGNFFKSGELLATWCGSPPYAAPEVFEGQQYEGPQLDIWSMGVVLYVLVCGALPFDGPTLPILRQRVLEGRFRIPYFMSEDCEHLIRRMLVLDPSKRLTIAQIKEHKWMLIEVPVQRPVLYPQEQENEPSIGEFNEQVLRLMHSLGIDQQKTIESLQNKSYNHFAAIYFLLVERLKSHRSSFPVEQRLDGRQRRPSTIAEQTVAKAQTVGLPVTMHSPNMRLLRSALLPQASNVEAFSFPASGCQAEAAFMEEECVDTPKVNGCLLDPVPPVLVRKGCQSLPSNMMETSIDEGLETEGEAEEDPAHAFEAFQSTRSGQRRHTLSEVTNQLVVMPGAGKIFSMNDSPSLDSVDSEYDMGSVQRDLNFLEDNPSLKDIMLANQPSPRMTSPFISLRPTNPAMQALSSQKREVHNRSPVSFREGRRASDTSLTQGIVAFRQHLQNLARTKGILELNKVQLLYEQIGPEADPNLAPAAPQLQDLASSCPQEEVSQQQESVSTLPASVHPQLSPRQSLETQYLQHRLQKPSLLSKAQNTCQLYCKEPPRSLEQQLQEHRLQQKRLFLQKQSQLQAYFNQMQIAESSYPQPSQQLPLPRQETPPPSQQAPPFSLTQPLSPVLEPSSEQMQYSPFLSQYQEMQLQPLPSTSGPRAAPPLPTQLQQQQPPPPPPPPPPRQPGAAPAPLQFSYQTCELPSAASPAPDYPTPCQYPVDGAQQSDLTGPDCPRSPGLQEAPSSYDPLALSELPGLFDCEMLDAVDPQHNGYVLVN

CAMK4 (human) = CAMK4 (human) (UniProt Q16566)
RPS6KA2 KD1 KD2 (human) = RPS6KA2 KD1 KD2 (human) (UniProt Q15349)
CDK3 CCNE1 (human) = CDK3 CCNE1 (human) (UniProt Q00526+P24864)
RIPK2 (human) = RIPK2 (human) (UniProt O43353)
MAP2K2 (human) = MAP2K2 (human) (UniProt P36507)
MAPKAPK2 (human) = MAPKAPK2 (human) (UniProt P49137)
MAP4K4 (human) = MAP4K4 (human) (UniProt O95819)
CDK6 CCND3 (human) = CDK6 CCND3 (human) (UniProt P30281+Q00534)
IKBKB (human) = IKBKB (human) (UniProt O14920)
Chain of IKBKB (human) (O14920 whole entry, looked up): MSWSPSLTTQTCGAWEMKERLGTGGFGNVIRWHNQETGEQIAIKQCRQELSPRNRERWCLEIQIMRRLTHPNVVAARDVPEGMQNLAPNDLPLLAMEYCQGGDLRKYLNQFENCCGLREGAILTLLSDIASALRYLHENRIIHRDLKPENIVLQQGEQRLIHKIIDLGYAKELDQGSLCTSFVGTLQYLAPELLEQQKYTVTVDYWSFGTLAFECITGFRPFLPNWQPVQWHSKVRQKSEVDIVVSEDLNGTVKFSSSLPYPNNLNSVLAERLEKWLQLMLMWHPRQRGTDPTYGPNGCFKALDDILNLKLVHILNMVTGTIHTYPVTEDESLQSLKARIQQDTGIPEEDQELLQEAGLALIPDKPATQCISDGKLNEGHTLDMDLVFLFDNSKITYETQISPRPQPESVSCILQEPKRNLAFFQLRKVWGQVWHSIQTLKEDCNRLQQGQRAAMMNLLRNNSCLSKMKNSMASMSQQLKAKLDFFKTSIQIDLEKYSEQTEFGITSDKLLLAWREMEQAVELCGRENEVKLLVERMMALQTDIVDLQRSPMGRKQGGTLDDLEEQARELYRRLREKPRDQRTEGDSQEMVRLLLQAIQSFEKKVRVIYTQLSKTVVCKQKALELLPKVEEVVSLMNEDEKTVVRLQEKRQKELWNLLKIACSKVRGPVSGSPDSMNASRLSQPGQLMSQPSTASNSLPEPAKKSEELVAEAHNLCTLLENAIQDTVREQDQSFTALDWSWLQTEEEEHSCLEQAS

TEK (human) = TEK (human) (UniProt Q02763)
MST1R (human) = MST1R (human) (UniProt Q04912)
BRSK1 (human) = BRSK1 (human) (UniProt Q8TDC3)

SMILES: CC[n+]1c(/C=C/N(C)c2ccccc2)n(-c2ccccc2)c2ccc(-c3nc4ccccc4s3)cc21
- residual activity (PRKCA (human)): 77.7%
- residual activity (MATK (human)): 96.4%
- residual activity (PRKG2 (human)): 92.4%
- residual activity (ULK2 (human)): 109%
- residual activity (CAMK2B (human)): 103%
- residual activity (ITK (human)): 92.7%
- residual activity (STK3 (human)): 98.9%
- residual activity (RPS6KA1 KD1 KD2 (human)): 104%
- residual activity (PIM2 (human)): 117%
- residual activity (MAP4K5 (human)): 91.7%
- residual activity (NEK1 (human)): 102%
- residual activity (SGK3 (human)): 102%
- residual activity (EGFR (human)): 103%
- residual activity (GSK3A (human)): 103%
- residual activity (OXSR1 (human)): 94.2%
- residual activity (EPHA5 (human)): 100%
- residual activity (MAPK10 (human)): 92.7%
- residual activity (TSSK1B (human)): 102%
- residual activity (PASK (human)): 102%
- residual activity (RET (human)): 95.6%
- residual activity (FES (human)): 101%
- residual activity (PRKCI (human)): 90.1%
- residual activity (TYRO3 (human)): 103%
- residual activity (MUSK (human)): 94.7%
- residual activity (MAP3K10 (human)): 103%
- residual activity (MINK1 (human)): 99%
- residual activity [1]: 104%
- residual activity (CSF1R (human)): 108%
- residual activity (PIM3 (human)): 98.8%
- residual activity (SIK2 (human)): 112%
- residual activity (CAMK4 (human)): 93.2%
- residual activity (RPS6KA2 KD1 KD2 (human)): 101%
- residual activity (CDK3 CCNE1 (human)): 92.2%
- residual activity (RIPK2 (human)): 88.6%
- residual activity (MAP2K2 (human)): 88.5%
- residual activity (MAPKAPK2 (human)): 97.2%
- residual activity (MAP4K4 (human)): 110%
- residual activity (CDK6 CCND3 (human)): 92.2%
- residual activity (IKBKB (human)): 98.6%
- residual activity (TEK (human)): 96%
- residual activity (MST1R (human)): 94.4%
- residual activity (BRSK1 (human)): 101%
